Patent US7468391B2, “Methods for treating retinoid responsive disorders using selective inhibitors of CYP26A and CYP26B” (Allergan, Inc., priority 2003, dated 2008)

How the values were obtained:
CYP26A (P450RAI-1) = biological target: T1, CYP26A (P450RAI-1) (Homo sapiens, UniProt O43174); assay: Cell-based inhibition of RA metabolism in CYP26A stably transfected HeLa cells; settings: stably transfected HeLa cells, [3H]-RA, 3 hours at 37° C.; read-out: P450RAI-1 Whole cell IC50
T1 construct: expressed in transfected cells; host or cells: HeLa
T1 sequence (O43174 1-497): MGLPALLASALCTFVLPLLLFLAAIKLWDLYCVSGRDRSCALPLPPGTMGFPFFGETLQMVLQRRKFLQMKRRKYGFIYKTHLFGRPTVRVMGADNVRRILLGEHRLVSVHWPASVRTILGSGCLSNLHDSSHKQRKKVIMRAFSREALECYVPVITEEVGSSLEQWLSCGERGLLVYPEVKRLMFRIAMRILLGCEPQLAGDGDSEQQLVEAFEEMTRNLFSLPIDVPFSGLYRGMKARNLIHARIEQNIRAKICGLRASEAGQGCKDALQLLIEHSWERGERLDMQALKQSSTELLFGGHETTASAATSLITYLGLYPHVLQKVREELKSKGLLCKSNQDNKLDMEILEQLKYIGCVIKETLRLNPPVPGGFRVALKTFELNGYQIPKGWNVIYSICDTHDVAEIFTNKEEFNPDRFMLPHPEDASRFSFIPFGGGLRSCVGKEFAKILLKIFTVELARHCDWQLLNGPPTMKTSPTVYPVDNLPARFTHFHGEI
Method: (§1) In brief, CYP26A or CYP26B can be stably transfected into HeLa cells. Exponentially growing cells are harvested by incubating in trypsin. Cells are then washed and plated in a 48-well plate at 5×10^5 cells in 0.2 ml MEM medium containing 10% FBS and 0.05 μCi [^3H]-RA in the presence or absence of increasing concentrations of the test compounds. The compounds are diluted in 100% DMSO and then added in triplicate wells at either 10, 1 or 0.1 μM final concentration. As a positive control for RA metabolism inhibition, cells are also incubated with ketoconazole at 100, 10 and 1 μM. Cells are incubated for 3 hours at 37 degrees C. The retinoids are then extracted using the procedure of Bligh et al., Canadian Journal of Biochemistry 37: 911-917 (1959), modified by using methylenechloride instead of chloroform. This publication by Bligh et al., is specifically incorporated herein by reference. The water soluble radioactivity is quantified using a β scintillation counter, and IC50 values are determined.
(§2) CYP26A and CYP26B stably transfected HeLa cells were maintained in 100 mm tissue culture dishes in MEM medium containing 10% FBS and 100 μg/ml hygromycin.
(§3) Exponentially growing cells were harvested by incubating in trypsin. Cells were then washed with 1×PBS and plated in a 48-well plate at 5×10^5 cells in 0.2 ml MEM medium containing 10% FBS and 0.05 μCi [^3H]-RA in the presence or absence of increasing concentrations of the test compounds. The compounds were diluted in 100% DMSO and then added to triplicate wells at final concentrations of 10, 1 or 0.1 μM. As a positive control for RA metabolism inhibition, cells were also incubated with ketoconazole at 100, 10 and 1 μM. Cells were incubated for 3 hours at 37° C. The retinoids were then extracted using a modified Bligh and Dyer procedure (Bligh and Dyer, supra (1959)), in which methylene-chloride, as opposed to chloroform, was used, and the aqueous soluble radioactivity quantified using a β-scintillation counter. ID50 values represent the concentration of inhibitor required to inhibit RA metabolism by 50 percent and were derived manually from log-transformed data.

RAR α = biological target: T2, RAR α (Homo sapiens, UniProt P10276); assay: RAR α Kd; type: binding; settings: last item of cell EC50/(EFFICACY)/Kd
T2 sequence (P10276 1-462): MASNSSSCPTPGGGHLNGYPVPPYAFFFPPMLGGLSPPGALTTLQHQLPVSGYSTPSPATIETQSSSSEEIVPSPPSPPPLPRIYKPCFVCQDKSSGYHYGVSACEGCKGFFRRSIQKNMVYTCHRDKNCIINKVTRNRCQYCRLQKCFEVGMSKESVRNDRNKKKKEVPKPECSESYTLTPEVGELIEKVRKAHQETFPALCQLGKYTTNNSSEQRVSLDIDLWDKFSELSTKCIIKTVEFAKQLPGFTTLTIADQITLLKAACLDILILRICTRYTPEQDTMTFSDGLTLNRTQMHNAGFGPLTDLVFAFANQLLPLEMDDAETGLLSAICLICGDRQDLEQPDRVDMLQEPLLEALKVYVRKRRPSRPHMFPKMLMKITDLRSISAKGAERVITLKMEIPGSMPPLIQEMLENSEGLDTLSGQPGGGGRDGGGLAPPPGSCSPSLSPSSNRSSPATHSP

CYP26B (P450RAI-2) = biological target: T3, CYP26B (P450RAI-2) (Homo sapiens, UniProt Q9NR63); assay: Cell-based inhibition of RA metabolism in CYP26B stably transfected HeLa cells; settings: stably transfected HeLa cells, [3H]-RA, 3 hours at 37° C.; read-out: P450RAI-2 Whole cell IC50
T3 construct: expressed in transfected cells; host or cells: HeLa
T3 sequence (Q9NR63 1-512): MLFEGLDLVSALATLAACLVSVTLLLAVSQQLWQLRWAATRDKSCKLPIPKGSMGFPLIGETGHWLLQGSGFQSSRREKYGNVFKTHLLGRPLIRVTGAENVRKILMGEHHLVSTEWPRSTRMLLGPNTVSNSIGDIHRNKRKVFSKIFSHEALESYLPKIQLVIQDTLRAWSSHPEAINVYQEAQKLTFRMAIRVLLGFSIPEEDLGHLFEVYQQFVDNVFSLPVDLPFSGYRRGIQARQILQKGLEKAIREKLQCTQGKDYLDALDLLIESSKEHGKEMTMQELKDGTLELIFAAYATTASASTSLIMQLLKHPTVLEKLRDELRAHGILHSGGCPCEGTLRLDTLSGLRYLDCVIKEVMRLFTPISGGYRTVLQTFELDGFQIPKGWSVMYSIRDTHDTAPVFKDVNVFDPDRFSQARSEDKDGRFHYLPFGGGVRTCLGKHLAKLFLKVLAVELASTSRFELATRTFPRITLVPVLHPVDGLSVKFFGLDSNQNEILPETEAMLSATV
Method: as §1, §2, §3

RAR β [1] = biological target: T4, RAR β (Homo sapiens, UniProt P10826); assay: RAR β EC50/(efficacy); type: cell-based; settings: for RAR β (EFFICACY): value in brackets of cell EC50/(EFFICACY)/Kd
T4 sequence (P10826 1-455): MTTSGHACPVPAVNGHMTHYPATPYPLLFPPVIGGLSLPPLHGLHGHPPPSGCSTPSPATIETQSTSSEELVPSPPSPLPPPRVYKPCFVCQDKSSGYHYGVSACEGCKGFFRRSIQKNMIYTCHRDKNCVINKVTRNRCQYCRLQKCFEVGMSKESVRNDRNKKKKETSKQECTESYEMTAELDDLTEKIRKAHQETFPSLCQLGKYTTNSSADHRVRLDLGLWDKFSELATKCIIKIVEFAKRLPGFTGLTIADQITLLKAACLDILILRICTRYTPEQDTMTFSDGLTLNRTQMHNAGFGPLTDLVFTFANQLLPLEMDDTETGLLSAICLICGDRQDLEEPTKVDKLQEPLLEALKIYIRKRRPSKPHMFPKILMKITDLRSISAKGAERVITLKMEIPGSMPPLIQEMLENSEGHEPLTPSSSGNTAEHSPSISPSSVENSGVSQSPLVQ

RAR β [2] = biological target: T4, RAR β; assay: RAR β Kd; type: binding; settings: last item of cell EC50/(EFFICACY)/Kd
RAR γ = biological target: T5, RAR γ (Homo sapiens, UniProt P13631); assay: RAR γ Kd; type: binding; settings: last item of cell EC50/(EFFICACY)/Kd
T5 sequence (P13631 1-454): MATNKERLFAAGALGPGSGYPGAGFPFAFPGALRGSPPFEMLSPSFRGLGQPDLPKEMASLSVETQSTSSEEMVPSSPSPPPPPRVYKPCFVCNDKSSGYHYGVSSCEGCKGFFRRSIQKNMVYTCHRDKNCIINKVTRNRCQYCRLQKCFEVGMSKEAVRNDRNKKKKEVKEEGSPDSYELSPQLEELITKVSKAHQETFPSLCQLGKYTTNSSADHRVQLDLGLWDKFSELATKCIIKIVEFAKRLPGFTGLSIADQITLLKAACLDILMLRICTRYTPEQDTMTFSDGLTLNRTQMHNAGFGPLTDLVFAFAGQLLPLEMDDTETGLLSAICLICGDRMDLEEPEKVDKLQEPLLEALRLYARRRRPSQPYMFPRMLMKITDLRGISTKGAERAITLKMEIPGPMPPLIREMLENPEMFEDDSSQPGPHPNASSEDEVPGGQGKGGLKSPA

CC1(C)CC(C)(C)c2cc(C#Cc3ccc(CC(=O)O)c(F)c3)cc(O)c2O1 [Compound 10, [2-Fluoro-4-(8-hydroxy-2,2,4,4-tetramethyl-chroman-6-ylethynyl)-phenyl]-acetic acid]
IC50 (CYP26A (P450RAI-1)): 0.07 µM
Kd (RAR α): > 10 µM
IC50 (CYP26B (P450RAI-2)): 0.7 µM
RAR β (EFFICACY) (RAR β [1]): 15
Kd (RAR β [2]): > 10 µM
Kd (RAR γ): > 10 µM

Cc1ccc(CN(C)C2CC2)cc1C#Cc1ccc(/C=C/C(=O)O)cc1 [Compound 34, (E)-3-(4-{5-[(Cyclopropyl-methyl-amino)-methyl]-2-methyl-phenylethynyl}-phenyl)-acrylic acid]
IC50 (CYP26A (P450RAI-1)): > 10 µM
Kd (RAR α): 5.65 µM
IC50 (CYP26B (P450RAI-2)): 0.12 µM
RAR β (EFFICACY) (RAR β [1]): 20
Kd (RAR β [2]): 3.49 µM
Kd (RAR γ): 8.53 µM

C#Cc1cc(NC(=O)Nc2ccc(C(=O)O)c(F)c2)cc2c1OC(C)(C)CC2(C)C [Compound 63, 4-[3-(8-Ethynyl-2,2,4,4-tetramethyl-chroman-6-yl)-ureido]-2-fluoro-benzoic acid]
IC50 (CYP26A (P450RAI-1)): > 10 µM
Kd (RAR α): > 100 µM
IC50 (CYP26B (P450RAI-2)): 0.68 µM
EC50 (RAR β [1]; first item of cell EC50/(EFFICACY)/Kd): 0.853 µM
RAR β (EFFICACY) (RAR β [1]): 37
Kd (RAR β [2]): 11 µM
Kd (RAR γ): > 100 µM

CC(C(=O)O)c1ccc(C#Cc2cc(CN(C)C3CC3)c3c(c2)C(C)(C)CC(C)(C)O3)cc1 (centres unmarked) [Compound 8, 2-(4-{8-[(Cyclopropyl-methyl-amino)-methyl]-2,2,4,4-tetramethyl-chroman-6-ylethynyl}-phenyl)-propionic acid]
IC50 (CYP26A (P450RAI-1)): 0.05 µM
Kd (RAR α): 0.957 µM
IC50 (CYP26B (P450RAI-2)): > 10 µM
RAR β (EFFICACY) (RAR β [1]): 15
Kd (RAR β [2]): 4.8 µM
Kd (RAR γ): > 10 µM

COc1cc(C#Cc2ccc(CC(=O)O)c(F)c2)cc2c1C(N(C)C1CC1)CCC2(C)C (centres unmarked) [Compound 26, {4-[5-(Cyclopropyl-methyl-amino)-4-methoxy-8,8-dimethyl-5,6,7,8-tetrahydro-naphthalen-2-ylethynyl]-2-fluoro-phenyl}-acetic acid]
IC50 (CYP26A (P450RAI-1)): 0.018 µM
Kd (RAR α): > 10 µM
IC50 (CYP26B (P450RAI-2)): 5 µM
RAR β (EFFICACY) (RAR β [1]): 25
Kd (RAR β [2]): > 10 µM
Kd (RAR γ): 1.12 µM

CCOC(=O)C1=CCC(C)(C)c2cc(C#Cc3ccc(CC(=O)O)c(F)c3)c(C)cc21 [Compound 56, 6-(4-Carboxymethyl-3-fluoro-phenylethynyl)-4,4,7-trimethyl-3,4-dihydro-naphthalene-1-carboxylic acid ethyl ester]
IC50 (CYP26A (P450RAI-1)): 0.5 µM
Kd (RAR α): > 10 µM
RAR β (EFFICACY) (RAR β [1]): 30
Kd (RAR β [2]): > 10 µM
Kd (RAR γ): > 10 µM

CC(C)c1cc(C#Cc2cccc(/C=C/C(=O)O)c2)cc2c1OC(C)(C)CC2(C)C [Compound 15, 3-[3-(8-Isopropyl-2,2,4,4-tetramethyl-chroman-6-ylethynyl)-phenyl]-acrylic acid]
IC50 (CYP26A (P450RAI-1)): 0.6 µM
Kd (RAR α): 8.9 µM
IC50 (CYP26B (P450RAI-2)): > 10 µM
Kd (RAR β [2]): > 10 µM
Kd (RAR γ): > 10 µM

C#Cc1cc(C#Cc2ccc(CC(=O)OCOC(C)=O)c(F)c2)cc(C(=O)OC(C)C)c1 [Compound 62, 3-(4-Acetoxymethoxycarbonylmethyl-3-fluoro-phenylethynyl)-5-ethynyl-benzoic acid isopropyl ester]
IC50 (CYP26A (P450RAI-1)): 0.4 µM
Kd (RAR α): > 10 µM
IC50 (CYP26B (P450RAI-2)): 6.1 µM
Kd (RAR β [2]): > 10 µM
Kd (RAR γ): > 10 µM

CC(C)OC(=O)c1ccc(C#Cc2ccc(CC(=O)O)c(F)c2)cc1CN(C)C1CC1 [Compound 39, 4-(4-Carboxymethyl-3-fluoro-phenylethynyl)-2-[(cyclopropyl-methyl-amino)-methyl]-benzoic acid isopropyl ester]
IC50 (CYP26A (P450RAI-1)): 2.5 µM
Kd (RAR α): > 10 µM
IC50 (CYP26B (P450RAI-2)): > 10 µM
Kd (RAR β [2]): > 10 µM
Kd (RAR γ): > 10 µM

CC(C)OC(=O)c1ccc(C#Cc2ccc(C(C)C(=O)O)cc2)cc1CN(C)C1CC1 (centres unmarked) [Compound 40, 4-[4-(1-Carboxy-ethyl)-phenylethynyl]-2-[(cyclopropyl-methyl-amino)-methyl]-benzoic acid isopropyl ester]
IC50 (CYP26A (P450RAI-1)): 1.3 µM
Kd (RAR α): > 10 µM
IC50 (CYP26B (P450RAI-2)): > 10 µM
Kd (RAR β [2]): > 10 µM
Kd (RAR γ): > 10 µM
